Laboratory results published in PubChem BioAssay (NCI).
Where “and” joins values, the source holds several entries; their conditions need not be identical. Identical values can stand only once.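 Growth conditions: 96-well plates. Treatment: test compound, 48 hours, 5 concentrations. Analysis: linear interpolation between bracketing concentrations; unreached endpoints set to highest concentration. GI50: concentration for 50% inhibition of growth. Definition used: TGI = concentration required for complete inhibition of growth.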

Experiments:
Assay in all cases: DTP human tumour cell line panel, 48 h
[1] = test system: ACHN renal
[2] = test system: SF-539 CNS
[3] = test system: EKVX NSCLC
[4] = test system: SNB-19 CNS
[5] = test system: SF-268 CNS
[6] = test system: NCI-H460 lung
[7] = test system: 786-0 renal
[8] = test system: HCC-2998 colon
[9] = test system: M14 melanoma
[10] = test system: SNB-75 CNS
[11] = test system: DMS 114 small cell lung
[12] = test system: SK-OV-3 ovarian
[13] = test system: LXFL 529 NSCLC
[14] = test system: OVCAR-5 ovarian
[15] = test system: HT29 colon
[16] = test system: M19-MEL melanoma
[17] = test system: NCI-H522 lung
[18] = test system: HOP-62 NSCLC
[19] = test system: A549 NSCLC
[20] = test system: NCI-H23 lung
[21] = test system: DLD-1 colon
[22] = test system: UO-31 renal
[23] = test system: SNB-78 CNS
[24] = test system: MALME-3M melanoma
[25] = test system: DMS 273 small cell lung
[26] = test system: KM20L2 colon
[27] = test system: TK-10 renal
[28] = test system: HOP-92 NSCLC
[29] = test system: KM12 colon
[30] = test system: HOP-18 NSCLC
[31] = test system: A498 renal
[32] = test system: SK-MEL-2 melanoma
[33] = test system: UACC-257 melanoma
[34] = test system: HCT-116 colon
[35] = test system: U251 CNS
[36] = test system: RPMI-8226 leukemia
[37] = test system: IGROV1 ovarian
[38] = test system: RXF 393 renal
[39] = test system: K-562 leukemia
[40] = test system: OVCAR-8 ovarian
[41] = test system: SW-620 colon
[42] = test system: HCT-15 colon
[43] = test system: OVCAR-3 ovarian
[44] = test system: SK-MEL-28 melanoma
[45] = test system: UACC-62 melanoma
[46] = test system: SN12C renal
[47] = test system: HL-60(TB) leukemia
[48] = test system: COLO 205 colon
[49] = test system: OVCAR-4 ovarian
[50] = test system: MOLT-4 leukemia
[51] = test system: SF-295 CNS
[52] = test system: NCI/ADR-RES ovarian
[53] = test system: SK-MEL-5 melanoma
[54] = test system: DU-145 prostate
[55] = test system: MDA-N
[56] = test system: MDA-MB-231 breast
[57] = test system: CCRF-CEM leukemia
[58] = test system: NCI-H226 lung
[59] = test system: CAKI-1 renal
[60] = test system: SR leukemia
[61] = test system: MDA-MB-435
[62] = test system: PC-3 prostate
[63] = test system: HS 578T breast
[64] = test system: LOX IMVI melanoma
[65] = test system: BT-549 breast
[66] = test system: MCF7 breast
[67] = test system: T-47D breast

O=C(CNc1nncs1)NO
TGI [1]: > 100 µM | TGI [2]: > 100 µM | TGI [3]: > 100 µM | TGI [4]: > 100 µM | TGI [5]: > 100 µM | TGI [6]: > 100 µM | TGI [7]: > 100 µM | TGI [8]: > 100 µM | TGI [9]: > 100 µM | TGI [10]: > 100 µM | TGI [11]: > 100 µM | TGI [12]: > 100 µM | TGI [13]: > 100 µM | TGI [14]: > 100 µM | TGI [15]: > 100 µM | TGI [16]: > 100 µM | TGI [17]: > 100 µM | TGI [18]: > 100 µM | TGI [19]: > 100 µM | TGI [20]: > 100 µM | TGI [21]: > 100 µM | TGI [22]: > 100 µM | TGI [23]: > 100 µM | TGI [24]: > 100 µM | TGI [25]: > 100 µM | TGI [26]: > 100 µM | TGI [27]: > 100 µM | TGI [28]: > 100 µM | TGI [29]: > 100 µM | TGI [30]: > 100 µM | TGI [31]: > 100 µM | TGI [32]: > 100 µM | TGI [33]: > 100 µM | TGI [34]: > 100 µM | TGI [35]: > 100 µM | TGI [36]: > 100 µM | TGI [37]: > 100 µM | TGI [38]: > 100 µM | TGI [39]: > 100 µM | TGI [40]: > 100 µM | TGI [41]: > 100 µM | TGI [42]: > 100 µM | TGI [43]: > 100 µM | TGI [44]: > 100 µM | TGI [45]: > 100 µM | TGI [46]: > 100 µM | TGI [47]: > 100 µM | TGI [48]: > 100 µM | TGI [49]: > 100 µM | TGI [50]: > 100 µM | TGI [51]: > 100 µM

COc1cccc(C2CC(C)(N3CCCC3)Oc3cc4c(cc32)OCO4)c1O (stereo not drawn)
TGI [1]: > 100 µM | TGI [52]: 62.4 µM | TGI [2]: 46.1 µM | TGI [3]: > 100 µM | TGI [4]: > 100 µM | TGI [5]: > 92.1 µM | TGI [6]: > 82.1 µM | TGI [53]: > 62.4 µM | TGI [7]: > 100 µM | TGI [8]: 48.2 µM | TGI [9]: > 83.8 µM | TGI [54]: > 96.3 µM | TGI [10]: 53.9 µM | TGI [55]: 10.7 µM | TGI [56]: 80.5 µM | TGI [12]: > 100 µM | TGI [57]: > 83.3 µM | TGI [14]: > 100 µM | TGI [15]: 45.3 µM | TGI [17]: 47.2 µM | TGI [18]: 90.1 µM | TGI [19]: > 100 µM | TGI [20]: 71 µM | TGI [22]: > 96.3 µM | TGI [24]: > 100 µM | TGI [27]: > 93.9 µM | TGI [58]: 55.9 µM | TGI [28]: > 100 µM | TGI [59]: > 100 µM | TGI [29]: > 100 µM | TGI [31]: > 100 µM | TGI [60]: 31.6 µM | TGI [32]: 55.8 µM | TGI [33]: > 100 µM | TGI [34]: > 63.6 µM | TGI [35]: 77.4 µM | TGI [36]: > 81 µM | TGI [37]: 99.2 µM | TGI [38]: > 80.6 µM | TGI [39]: 41.9 µM | TGI [61]: 18.4 µM | TGI [62]: > 76.1 µM | TGI [40]: > 73.2 µM | TGI [41]: > 100 µM | TGI [42]: 70 µM | TGI [63]: 57.7 µM | TGI [43]: 46.1 µM | TGI [44]: > 51.5 µM | TGI [45]: > 90.1 µM | TGI [46]: 84.9 µM | TGI [47]: > 54.2 µM | TGI [48]: 39.7 µM | TGI [64]: > 94.5 µM | TGI [65]: 87.7 µM | TGI [66]: > 91.2 µM | TGI [67]: > 100 µM | TGI [49]: > 100 µM | TGI [50]: > 73.4 µM | TGI [51]: 59.6 µM

CN1CCN(CN2C(=O)C3C4C=CC(C3C2=O)C2C3C(=O)N(CN5CCN(C)CC5)C(=O)C3C42)CC1 (stereo not drawn)
TGI [1]: 73.6 µM and > 61.3 µM and 48.5 µM | TGI [52]: 64.5 µM | TGI [2]: 44.4 µM and 45.4 µM and 49.1 µM | GI50 [3]: > 100 µM | TGI [3]: > 100 µM | GI50 [4]: 31.7 µM and 53.2 µM and 76.9 µM | TGI [4]: > 100 µM | TGI [5]: 50.6 µM and > 62.6 µM and 33.9 µM | TGI [6]: 32.3 µM and 37.9 µM and 27.3 µM | TGI [53]: 31 µM and > 58.5 µM and 68.7 µM | TGI [7]: 34.3 µM and 40.3 µM and 36 µM | TGI [8]: 89.2 µM and 51.5 µM and 79 µM | TGI [9]: 30.8 µM and 34.2 µM and 40.8 µM | TGI [54]: 77.2 µM | TGI [10]: 79.8 µM and 72.9 µM and 92.1 µM | TGI [11]: 36.8 µM and 37.7 µM and 35.5 µM | TGI [55]: 32.5 µM | TGI [56]: 56.8 µM | GI50 [12]: 37.4 µM and 34.1 µM and 80.1 µM | TGI [12]: > 100 µM | TGI [13]: 35.9 µM and 32.7 µM and 57.3 µM | TGI [57]: 65.3 µM and 42 µM and 48.3 µM | TGI [14]: > 100 µM | TGI [15]: > 100 µM | TGI [17]: 39.6 µM and 25.4 µM | TGI [18]: > 100 µM | TGI [19]: 90.5 µM and 57.5 µM and 36.2 µM | TGI [20]: 43.9 µM and 39.6 µM and 75.2 µM | TGI [21]: 49.7 µM and 41 µM and 52.4 µM | TGI [22]: 76.8 µM and > 67.8 µM and > 100 µM | TGI [24]: 34.2 µM | TGI [25]: 39.4 µM and 30.9 µM and 10.6 µM | TGI [26]: 56.8 µM and 40.9 µM and 63.4 µM | TGI [27]: > 100 µM | GI50 [58]: 33.5 µM and > 57.7 µM and 76.8 µM | TGI [58]: > 100 µM | GI50 [28]: 35.7 µM and > 96.5 µM and > 100 µM | TGI [28]: 94.8 µM and > 100 µM | GI50 [59]: 44.8 µM and 33.6 µM and 70.6 µM | TGI [59]: > 100 µM | TGI [29]: 41.7 µM and 51.9 µM and > 100 µM | GI50 [30]: 34.4 µM and 13 µM and 48.6 µM | TGI [30]: 71 µM and 34.4 µM and > 100 µM | TGI [31]: > 100 µM and 97.9 µM | TGI [60]: 41.6 µM and 36.2 µM | TGI [32]: 40 µM and 35.6 µM and 30 µM | GI50 [33]: 35.7 µM and 25 µM and 62.2 µM | TGI [33]: 84.4 µM and 54.3 µM and > 100 µM | TGI [34]: 33.4 µM and 36.4 µM and 27.3 µM | TGI [35]: 38.3 µM and 37.2 µM and 33 µM | TGI [36]: 59.2 µM and 53.2 µM and 71.5 µM | TGI [37]: > 100 µM | TGI [38]: 41.4 µM and 34.7 µM and 36.2 µM | TGI [39]: 81.4 µM and 55.6 µM and 58.2 µM | TGI [61]: 31.3 µM | TGI [62]: 97.9 µM | TGI [40]: 35.7 µM and > 65.3 µM and 59.9 µM | TGI [41]: 43.2 µM and > 60.8 µM and 35.1 µM | TGI [42]: 34.8 µM and 42.1 µM and 30.3 µM | TGI [63]: > 100 µM | TGI [43]: 48.2 µM and 57.6 µM and 75.5 µM | TGI [44]: 49.3 µM and > 61.8 µM and 35.3 µM | TGI [45]: 43.3 µM and 37.1 µM and 58.7 µM | TGI [46]: 43.7 µM and 41.9 µM and 52.8 µM | TGI [48]: 33.2 µM and 34.5 µM and 35.3 µM | TGI [64]: 35.5 µM and 37.4 µM and 33.8 µM | TGI [65]: 69.6 µM | TGI [66]: > 100 µM | TGI [67]: > 100 µM | TGI [49]: 38.4 µM and 45.1 µM and 53.5 µM | TGI [50]: 60.6 µM and 51.3 µM and 55.9 µM | GI50 [51]: 32.2 µM and 86.2 µM and 49.2 µM | TGI [51]: 97.4 µM and > 100 µM
